Reference: patent US20260008775A1, “AZOLE MODULATORS OF CHOLESTEROL BIOSYNTHESIS AND THEIR USE FOR PROMOTING REMYELINATION” (GENENTECH, INC., priority 2022, published 2026)

How the values were obtained:
[1] = tested on: zymostenol accumulation (EBP) in EpiSC-derived OPCs; experiment: GC/MS-based sterol profiling, zymostenol accumulation in EpiSC-derived OPCs; assay type: cell-based, mouse; details: Mus musculus, 24 h, EpiSC-derived OPCs, 24 hr, 8 doses from 0.15 nM to 333 nM; read-out: Mouse Zymostenol GCMS EC50
Procedure: (§1) To assess effects of treatments on OPCs, all treatments were assayed in two or more independent platings of epiblast stem cell-derived OPCs (EpiSC). EpiSC-derived OPCs were obtained using in vitro differentiation protocols and culture conditions described previously (Najm et al, 2011, Nature Methods). OPCs were expanded and frozen down in aliquots. OPCs were thawed into growth conditions for at least one passage before use in further assays.
Sterols were monitored using a modified Folch wash protocol (Hubler et al, 2018, Nature). EpiSC-derived OPCs were plated at 100,000 cells per well in PO- and laminin-coated 96-well plates in N2B27 media without growth factors. After 24 hours, cells were rinsed with saline and plates were frozen. Cholesterol-d7 standard was then added to each well before drying under nitrogen stream and derivatization with 55 μl of bis(trimethylsilyl) trifluoroacetamide. After derivatization, 2 μl were analyzed by gas chromatography/mass spectrometry using an Agilent 5973 Network Mass Selective Detector equipped with a 6890 gas chromatograph system and a HP-5MS capillary column (30 m×0.25 mm×[…]). Samples were analyzed in full scan mode using electron impact ionization; ion fragment peaks were integrated to calculate sterol abundance, and quantitation was relative to cholesterol-d7. The following ion fragments were used to quantitate each metabolite: cholesterol-d7 (465), FF-Mas (482), cholesterol (368), zymostenol (458), zymosterol (456), Desmosterol (456, 343), 7-dehydrocholesterol (456, 325), lanosterol (393), lathosterol (458), 14-dehydrozymostenol (456, 351). […] All standards were obtained from Avanti Polar Lipids unless otherwise indicated. Calibration curves were generated by injecting varying concentrations of sterol standards and maintaining a fixed amount of cholesterol-D7. For normalized zymostenol accumulation results, the total amount of zymostenol measured after drug treatment was divided by the total amount of zymostenol accumulated after 24 hr treatment with 100 nM positive control reference.

[2] = tested on: EpiSC-derived OPCs; experiment: In vitro phenotypic screening of OPCs, MBP high-content imaging (percentage of oligodendrocytes); assay type: cell-based, mouse; details: for EC50: Mus musculus, 72 h, 3 days, MBP stain, dose-response 0.5 nM to 1000 nM, read-out: OPC EC50
Procedure: as §1
EpiSC-derived OPCs were grown and expanded in poly-L-ornithine (PO) and laminin-coated flasks in N2B27 media (DMEM/F12 (Gibco), N2-MAX (R&D Systems), B-27 (ThermoFisher), and GlutaMax (Gibco)) supplemented with FGF2 (10 μg/mL, R&D systems, 233-FB-025) and PDGF-AA (10 μg/mL, R&D systems, 233-AA-050) before harvesting for experiments. The cells were seeded onto poly-L-ornithine or poly-D-lysine coated CellCarrier Ultra plates (PerkinElmer) coated with laminin (Sigma, L2020) at a density of 150,000/cm^2 in N2B27 media without growth factors. For dose-response testing, a 1000× compound stock in dimethyl sulphoxide (DMSO) was added to assay plates, resulting in 8-point dose curves with final concentrations between 1000 nM and 0.5 nM. Positive controls and DMSO vehicle controls were included in each assay plate. Cells were incubated under standard conditions (37° C., 5% CO2) for 3 days and fixed with 4% paraformaldehyde (PFA) in phosphate buffered saline (PBS) for 20 min. Fixed plates were washed with PBS, permeabilized with 0.1% Triton X-100, and blocked with 10% donkey serum (v/v) in PBS for 40 min. Then, cells were labelled with MBP antibodies (Abcam, ab7349; 1:200) for 2 h at room temperature, washed with PBS, and stained with Alexa Fluor conjugated secondary antibodies (1:500) for 45 min. Nuclei were visualized by DAPI staining (Sigma; […]), followed by further PBS washes.
Cells and cell culture plates were imaged on the Operetta High Content Imaging and Analysis system (PerkinElmer). Analysis (PerkinElmer Harmony and Columbus software) began by identifying intact nuclei stained by DAPI. The peri-nuclear region of each cell was then cross-referenced with the mature myelin protein (MBP) stain to identify oligodendrocyte nuclei, and from this the percentage of oligodendrocytes was calculated. EC50 values were calculated using The Levenberg-Marquardt algorithm to fit a Hill equation to dose-response data (0.5 nM to 1000 nM).

[3] = molecular target: human emopamil binding protein and human 7-dehydrocholesterol reductase (hEBP-DHCR7) (Homo sapiens (Human), UniProt Q15125); experiment: hEBP-DHCR7 radioligand binding assay (filter binding, membranes of co-expressing HEK293 cells); details: competition with [3H] radioligand, 8 doses 0.06 to 5000 nM, Ki calculated from IC50
Chain of human emopamil binding protein and human 7-dehydrocholesterol reductase (hEBP-DHCR7) (Q15125 whole entry): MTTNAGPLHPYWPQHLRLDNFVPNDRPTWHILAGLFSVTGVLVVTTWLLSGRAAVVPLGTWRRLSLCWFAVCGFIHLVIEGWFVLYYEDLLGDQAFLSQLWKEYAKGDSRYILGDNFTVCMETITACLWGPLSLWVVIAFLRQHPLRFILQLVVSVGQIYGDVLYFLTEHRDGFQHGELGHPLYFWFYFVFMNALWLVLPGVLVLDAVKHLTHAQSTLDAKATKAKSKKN
Procedure: Membrane Preparation: human emopamil binding protein and human 7-dehydrocholesterol reductase co-expressing cells were generated by transient transfecting host human embryonic kidney (HEK) 293 cells with 2 DNA constructs containing each protein's coding sequence. Cells were suspension cultured at 37° C. with 5% CO2 in […] 293 Expression Medium (Thermofisher). Whole cell membrane was prepared by harvesting the cell pellet, adding cold membrane buffer (50 mM Tris, pH7.5, 1× Roche COMPLETE EDTA-free protease inhibitor cocktail) 10 times volume of the cell pellets weight, lysing cell pellet on ice by using Dounce homogenizer, spinning at 200 g 4° C. for 15 min, collecting supernatant and spinning again at 25000 g 4° C. for 50 min, transferring pellet to Dounce homogenizer, re-suspending pellet by homogenizing in membrane buffer on ice to reach ˜25 mg/mL, then keeping whole cell membrane aliquots at −80° C.
Compounds were prepared in a 96-well U bottom plate (Corning Cat #7007) using an Echo550 machine and 10 mM compound DMSO stock solution, followed by an 8-dose 5-fold serial dilutions protocol with final testing compound concentration ranging from 0.06 to 5000 nM, with DMSO back fill to 100 nL/well and n=2. […] The UniFilter-96 GF/B plates (PerkinElmer Cat #6005177) were pre-treated by adding 50 μl/well of 0.3% (v/v) Polyethylenimine (PEI) (branched, Sigma Cat #408727) to UniFilter-96 GF/B plates. The plates were sealed and incubated at 4° C. for 3 hrs. Then, the plates were washed with ice-cold assay buffer 3 times. The radioligand binding assay was prepared by adding assay buffer diluted hEBP-DHCR7 membrane at 66.7 µg/ml×150 μl/well into the 96-well compound plate to reach 10 μg membrane per well. Then, the assay buffer diluted [3H]—(S)-6-(2-Methyl-3-(6-(trifluoromethyl)pyridin-3-yl)propyl)-2-thia-6-azaspiro[3.4]octane 2,2-dioxide (Moravek, Cat #MT-1003106) was added at 25 nM×50 μl/well. Following this, the plate was centrifuged at 1000 rpm for 30 secs. The plate was then sealed and agitated at 600 rpm at 22° C. for 5 min, and then incubated at 22° C. for 3 hrs. The incubation was stopped by transferring the binding solution to the pre-treated UniFilter-96 GF/B plate, vacuum filtrated, and then washed four times with ice-cold assay buffer. Following this, the plates were dried at 37° C. for 45 min. The plates were then sealed at the bottom. 40 µl/well of scintillation cocktail was added to the plates. A MicroBeta2 microplate counter was then used to read the plate and analyze the data. For reference and test compounds, the results are expressed as % Inhibition, using the normalization equation: N=100−100×(U−C2)/(C1−C2), where U is the unknown value, C1 is the average of high controls, and C2 is the average value of low controls.

Row | SMILES | EC50 [1] | EC50 [2] | Ki [3] | fold decrease in activity in the OPC assay ([2]; as compared to compound 171)
1 | CC(C)n1nc(-c2cccc(C(F)(F)F)n2)nc1[C@@H]1CCC(N2CCOCC2)C1 (stereo in doubt) [25*, 4-((1R,3R)-3-(1-isopropyl-3-(6-(trifluoromethyl)pyridin-2-yl)-1H-1,2,4-triazol-5-yl)cyclopentyl)morpholine] | 234 nM | 65.5 nM | – | –
2 | CC(C)n1nc(-c2cncc(C(F)(F)F)c2)cc1[C@H]1[C@@H]2C[C@@H](N3CCOCC3)C[C@@H]21 [Cmpd 202] | 236 nM | 723 nM | – | –
3 | CC(C)n1nc(-c2cnc(C(F)(F)F)nc2)nc1[C@@H]1CC[C@@H](N2CCO[C@H](C)C2)C1 [Compound 149, (R)-4-((1R,3R)-3-(1-Isopropyl-3-(2-(trifluoromethyl)pyrimidin-5-yl)-1H-1,2,4-triazol-5-yl)cyclopentyl)-2-methylmorpholine] | 129 nM | – | 68.3 nM | –
4 | CC(C)n1nc(-c2cnc(C(F)(F)F)nc2)nc1[C@@H]1CC[C@@H](N2CCO[C@@H](C)C2)C1 [Compound 151, (S)-4-((1R,3R)-3-(1-Isopropyl-3-(2-(trifluoromethyl)pyrimidin-5-yl)-1H-1,2,4-triazol-5-yl)cyclopentyl)-2-methylmorpholine] | 129 nM | – | 505 nM | –
5 | CC[C@@H]1CN([C@@H]2CC[C@@H](c3nc(-c4cnc(C(F)(F)F)nc4)nn3C(C)C)C2)CCO1 [Compound 153, (R)-2-Ethyl-4-((1R,3R)-3-(1-isopropyl-3-(2-(trifluoromethyl)pyrimidin-5-yl)-1H-1,2,4-triazol-5-yl)cyclopentyl) morpholine] | 13.4 nM | – | 58.2 nM | –
6 | CC[C@H]1CN([C@@H]2CC[C@@H](c3nc(-c4cnc(C(F)(F)F)nc4)nn3C(C)C)C2)CCO1 [Compound 155, (S)-2-Ethyl-4-((1R,3R)-3-(1-isopropyl-3-(2-(trifluoromethyl)pyrimidin-5-yl)-1H-1,2,4-triazol-5-yl)cyclopentyl) morpholine] | 305 nM | – | 465 nM | –
7 | CC[C@@H]1CN([C@@H]2CC[C@H](c3nc(-c4ccc(C(F)F)nc4)nn3C(C)C)C2)CCO1 [Compound 156, (R)-4-((1R,3S)-3-(3-(6-(Difluoromethyl)pyridin-3-yl)-1-isopropyl-1H-1,2,4-triazol-5-yl)cyclopentyl)-2-ethylmorpholine] | 4.07 nM | – | 43.8 nM | –

Continued, in another order:

Row | EC50 [1] | EC50 [2] | Ki [3] | SMILES | fold decrease in activity in the OPC assay ([2]; as compared to compound 171)
8 | 64 nM | 232 nM | – | CC(C)n1nc(-c2cccc(C(F)(F)F)c2)nc1[C@H]1[C@@H]2C[C@@H](N3CCOCC3)C[C@@H]21 [20*, 4-((1R,3s,5S,6r)-6-(1-isopropyl-3-(3-(trifluoromethyl)phenyl)-1H-1,2,4-triazol-5-yl)bicyclo[3.1.0]hexan-3-yl)morpholine] | –
9 | 1.48 nM | 3.18 nM | – | CC(C)n1nc(-c2cccc(C(F)(F)F)c2)nc1[C@H]1[C@@H]2C[C@H](N3CCCOCC3)C[C@@H]21 [Compound 13, 4-((1R,3r,5S,6r)-6-(1-isopropyl-3-(3-(trifluoromethyl)phenyl)-1H-1,2,4-triazol-5-yl)bicyclo[3.1.0]hexan-3-yl)-1,4-oxazepane] | –
10 | 0.94 nM | – | 11.3 nM | CC[C@@H]1CN([C@@H]2CC[C@H](c3nc(-c4cnc(C(F)(F)F)c(F)c4)nn3C(C)C)C2)CCO1 [Compound 146, (R)-2-Ethyl-4-((1R,3S)-3-(3-(5-fluoro-6-(trifluoromethyl)pyridin-3-yl)-1-isopropyl-1H-1,2,4-triazol-5-yl)cyclopentyl)morpholine] | –
11 | 14.5 nM | – | 1740 nM | CC[C@H]1CN([C@@H]2CC[C@H](c3nc(-c4cnc(C(F)(F)F)c(F)c4)nn3C(C)C)C2)CCO1 [Compound 147, (S)-2-Ethyl-4-((1R,3S)-3-(3-(5-fluoro-6-(trifluoromethyl)pyridin-3-yl)-1-isopropyl-1H-1,2,4-triazol-5-yl)cyclopentyl)morpholine] | –
12 | 13.4 nM | – | 22.2 nM | CC(C)n1nc(-c2cnc(C(F)(F)F)nc2)nc1[C@@H]1CC[C@H](N2CCO[C@H](C)C2)C1 [Compound 148, (R)-4-((1S,3R)-3-(1-Isopropyl-3-(2-(trifluoromethyl)pyrimidin-5-yl)-1H-1,2,4-triazol-5-yl)cyclopentyl)-2-methylmorpholine] | –
13 | 946 nM | – | 3540 nM | CC(C)n1nc(-c2cnc(C(F)(F)F)nc2)nc1[C@@H]1CC[C@H](N2CCO[C@@H](C)C2)C1 [Compound 150, (S)-4-((1S,3R)-3-(1-Isopropyl-3-(2-(trifluoromethyl)pyrimidin-5-yl)-1H-1,2,4-triazol-5-yl)cyclopentyl)-2-methylmorpholine] | –
14 | 221 nM | – | 465 nM | CC[C@H]1CN([C@H]2CC[C@@H](c3nc(-c4cnc(C(F)(F)F)nc4)nn3C(C)C)C2)CCO1 [Compound 154, (S)-2-Ethyl-4-((1S,3R)-3-(1-isopropyl-3-(2-(trifluoromethyl)pyrimidin-5-yl)-1H-1,2,4-triazol-5-yl)cyclopentyl)morpholine] | –
15 | – | 692 nM | – | CC(C)n1nc(-c2cnc(N)c(C(F)(F)F)c2)cc1[C@H]1[C@@H]2C[C@H](N3CCOCC3)C[C@@H]21 [Compound B, reference compound] | 41.7 fold
